The values that follow come from PubChem BioAssay (NCI).

Some test systems named below: SNB-19 CNS; SK-MEL-5 melanoma; BT-549 breast; LOX IMVI melanoma; RXF 393 renal; NCI/ADR-RES ovarian; HCC-2998 colon; MOLT-4 leukemia; COLO 205 colon; DU-145 prostate.
Assay in all cases: growth of human tumour cells (NCI), 48 h

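Growth conditions: 96-well plates. Treatment: test compound, 48 hours, 5 concentrations. Analysis: linear interpolation between bracketing concentrations; unreached endpoints set to highest concentration. Here, GI50 denotes the concentration required for 50% inhibition of growth. TGI: total growth inhibition.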 Where only a bound is given, the exact number is not on record here.

For the compound `O=C(Nc1nc2ccc(OC(F)(F)F)cc2s1)c1ccc(F)cc1`, the GI50 was 3.74 µM in the test with SNB-19 CNS; 2.45 µM with SK-MEL-5 melanoma; 3.76 µM in the test with BT-549 breast; 3.21 µM with LOX IMVI melanoma; 2.68 µM in the test on RXF 393 renal; 3.35 µM in the test on NCI/ADR-RES ovarian. The GI50 in the test with HCC-2998 colon was 3.91 µM; with MOLT-4 leukemia, 3.08 µM; in the test with COLO 205 colon, 2.11 µM; with DU-145 prostate, 3.44 µM. Moreover, the TGI in the test on SNB-19 CNS is greater than 100 µM; with SK-MEL-5 melanoma, 6.6 µM; in the test with BT-549 breast it was 54.6 µM; with LOX IMVI melanoma, 9.03 µM; in the test on RXF 393 renal, 13.7 µM; with NCI/ADR-RES ovarian, 16.4 µM. Moreover, the TGI with HCC-2998 colon was greater than 100 µM; in the test with MOLT-4 leukemia, 84.9 µM; in the test with COLO 205 colon, 4.11 µM; in the test with DU-145 prostate, greater than 100 µM.
Take `CCN(CC)CCOc1ccc2c(-c3ccccc3)c(-c3ccc(OC)cc3)c(=O)oc2c1`: the GI50 in the test with SNB-19 CNS is 10.2 µM; in the test on SK-MEL-5 melanoma it was 1.77 µM; with BT-549 breast, 6.16 µM; in the test with LOX IMVI melanoma, 1.93 µM; in the test with RXF 393 renal it was 3.23 µM; in the test with NCI/ADR-RES ovarian, 4.51 µM. Also, the GI50 with HCC-2998 colon is 4.22 µM; with MOLT-4 leukemia, 2.82 µM; in the test with COLO 205 colon, 1.85 µM; in the test with DU-145 prostate, 10.5 µM. Also, the TGI in the test with SNB-19 CNS stood at 22.2 µM; in the test on SK-MEL-5 melanoma it was 3.55 µM; in the test with BT-549 breast, 19.4 µM; in the test on LOX IMVI melanoma, 4.27 µM; with RXF 393 renal, 13.7 µM; in the test with NCI/ADR-RES ovarian, 17.5 µM. Also, the TGI with HCC-2998 colon is 15 µM; in the test with MOLT-4 leukemia, 8.27 µM; in the test with COLO 205 colon, 3.72 µM; in the test with DU-145 prostate, 22.6 µM.
Regarding `COc1cc(C2C=C(C)N=C3SC=C(C)N32)cc(OC)c1OC` (centres undefined), the GI50 in the test with SNB-19 CNS was 2.32 µM; in the test on SK-MEL-5 melanoma it was 1 µM; in the test on BT-549 breast it was 0.531 µM; in the test with LOX IMVI melanoma, 0.379 µM; in the test with RXF 393 renal, 1.49 µM; with NCI/ADR-RES ovarian it was 0.454 µM. In addition, the GI50 in the test on HCC-2998 colon is 1.94 µM; in the test with MOLT-4 leukemia it was 0.445 µM; in the test with COLO 205 colon it was 1.32 µM; with DU-145 prostate, 1.81 µM. Moreover, the TGI was 15.8 µM with SNB-19 CNS; 2.21 µM in the test with SK-MEL-5 melanoma; 2.09 µM in the test with BT-549 breast; 1.73 µM in the test on LOX IMVI melanoma; 3.14 µM in the test with RXF 393 renal; greater than 100 µM with NCI/ADR-RES ovarian. The TGI in the test with HCC-2998 colon is 3.54 µM; in the test on MOLT-4 leukemia it was greater than 100 µM; in the test with COLO 205 colon, 3.04 µM; in the test with DU-145 prostate it was greater than 100 µM.
Turning to `O=C1NC(=NCCc2ccccc2F)S/C1=C\c1ccc2ncccc2c1`, the GI50 in the test with SNB-19 CNS was 5.68 µM; in the test on SK-MEL-5 melanoma it was 5.85 µM; in the test with BT-549 breast, 6.48 µM; in the test on LOX IMVI melanoma it was 1.82 µM; in the test with RXF 393 renal, 7.18 µM; in the test on NCI/ADR-RES ovarian, 9.2 µM. Also, the GI50 was 8.55 µM in the test with HCC-2998 colon, 9.02 µM in the test on MOLT-4 leukemia, 6.54 µM in the test on COLO 205 colon and 8.81 µM in the test on DU-145 prostate. Also, the TGI was greater than 25 µM in the test on SNB-19 CNS; 19.4 µM with SK-MEL-5 melanoma; greater than 25 µM in the test on BT-549 breast; greater than 25 µM in the test with LOX IMVI melanoma; greater than 25 µM with RXF 393 renal; greater than 25 µM in the test on NCI/ADR-RES ovarian. Further, the TGI in the test on HCC-2998 colon, in the test with MOLT-4 leukemia, in the test with COLO 205 colon and in the test on DU-145 prostate was greater than 25 µM in each case.
`COC(=O)COc1ccccc1/C=C1/N=C(c2ccccc2)N(c2c(C)n(C)n(-c3ccccc3)c2=O)C1=O`: the GI50 with SNB-19 CNS is greater than 100 µM; in the test with SK-MEL-5 melanoma, greater than 100 µM; in the test on BT-549 breast it was 40.7 µM; with LOX IMVI melanoma, 76.5 µM; in the test on RXF 393 renal, greater than 100 µM; in the test on NCI/ADR-RES ovarian, greater than 100 µM. Moreover, the GI50 in the test with HCC-2998 colon is 47.3 µM; in the test on MOLT-4 leukemia, greater than 100 µM; in the test with COLO 205 colon, greater than 100 µM; in the test with DU-145 prostate it was greater than 100 µM. The TGI in the test on SNB-19 CNS, with SK-MEL-5 melanoma, in the test with BT-549 breast, with LOX IMVI melanoma, in the test on RXF 393 renal and in the test on NCI/ADR-RES ovarian was greater than 100 µM in each case. In addition, the TGI with HCC-2998 colon, in the test with MOLT-4 leukemia, in the test on COLO 205 colon and with DU-145 prostate was greater than 100 µM each time.
For the compound `Cc1cc2c3c(nc4ccccc42)C(=O)c2cccnc2-c3n1`, the GI50 in the test with SNB-19 CNS was 0.255 µM; in the test on SK-MEL-5 melanoma, 0.0808 µM; in the test on BT-549 breast it was 1.15 µM; with LOX IMVI melanoma it was 0.144 µM; in the test with RXF 393 renal it was 1.17 µM; in the test on NCI/ADR-RES ovarian, 0.489 µM. In addition, the GI50 was 0.311 µM in the test on HCC-2998 colon, 0.47 µM with MOLT-4 leukemia, 1.13 µM with COLO 205 colon and 0.3 µM in the test on DU-145 prostate. Moreover, the TGI in the test with SNB-19 CNS came to 1.66 µM; in the test on SK-MEL-5 melanoma, 0.354 µM; in the test on BT-549 breast it was 2.41 µM; in the test with LOX IMVI melanoma, 0.524 µM; in the test with RXF 393 renal, 3.19 µM; in the test with HCC-2998 colon, 1.26 µM. In addition, the figures for the TGI with MOLT-4 leukemia, in the test on COLO 205 colon and in the test with DU-145 prostate were 5.69 µM, 2.45 µM and 1.48 µM, respectively.
As to `Nc1nc(N)c2c(Cl)c(CNc3ccc(Cl)c(Cl)c3)ccc2n1`, the TGI in the test with SNB-19 CNS turned out to be 17.7 µM; in the test on SK-MEL-5 melanoma, 4.65 µM; in the test with BT-549 breast it was 19.1 µM; with LOX IMVI melanoma, 7.37 µM; in the test on RXF 393 renal, 7.26 µM; with NCI/ADR-RES ovarian, 18.7 µM. In addition, the TGI in the test with HCC-2998 colon came out at 2.05 µM; in the test with MOLT-4 leukemia it was 9.41 µM; in the test on COLO 205 colon, 13 µM; with DU-145 prostate it was 15.7 µM.
Take `Oc1ccc(/C=N/NC(=S)Nc2ccccc2)nc1`: the GI50 with SNB-19 CNS was 1.93 µM; in the test on SK-MEL-5 melanoma, 0.754 µM; in the test with BT-549 breast, 1.7 µM; in the test on LOX IMVI melanoma, 0.464 µM; with RXF 393 renal, 0.667 µM; with NCI/ADR-RES ovarian it was 1.43 µM. The GI50 in the test with HCC-2998 colon is 4.09 µM; in the test with MOLT-4 leukemia, 3.26 µM; in the test on COLO 205 colon, 3.31 µM; with DU-145 prostate, 1.1 µM. Also, the TGI in the test on SNB-19 CNS is greater than 100 µM; with SK-MEL-5 melanoma, 3.36 µM; with BT-549 breast it was greater than 100 µM; in the test on LOX IMVI melanoma, 16.6 µM; in the test on RXF 393 renal it was 4.91 µM; in the test with NCI/ADR-RES ovarian, greater than 100 µM. Further, the TGI with HCC-2998 colon, with MOLT-4 leukemia, in the test with COLO 205 colon and in the test with DU-145 prostate was greater than 100 µM throughout.
